Experimental data: patent US20240424146A1, “DRUG SCREENING METHOD AND MODEL FOR MONITORING PLATINUM-RESISTANT OVARIAN CANCER TUMOR GROWTH AND METASTASES” (THE BOARD OF REGENTS OF THE UNIVERSITY OF OKLAHOMA, priority 2023, published 2024)

System: OVCAR-8 CPR Luc cells
Assay: cisplatin dose response, cell viability by MTS assay
Format: cell-based, human
Conditions: non-linear regression, FIG. 1
Method: Cells were treated with increasing doses of cisplatin and cell viability was measured using the MTS assay. IC50 values were calculated using non-linear regression analysis in GraphPad Prism software.
Next, we confirmed that these cells retained their inherent response to cisplatin. […] To determine if luciferase activity could be visualized in vitro we plated the OVCAR-8 CPR Luc cells in 2-dimensional (2D) adherent and suspended three-dimensional (3D) spheroid conditions.

## N.N.[Cl][Pt][Cl] [cisplatin]
  IC50 of OVCAR-8 CPR Luc cells to cisplatin relative to cisplatin-sensitive cells (OVCAR-8 Luc): twice
